Experimental data reported in ChEMBL document CHEMBL5360555, “Structure-based discovery of novel α-aminoketone derivatives as dual p53-MDM2/MDMX inhibitors for the treatment of cancer” (Eur J Med Chem, 2023).
pIC50, pKi: −log10 of the molar value.

Columns and labels:
SH-SY5Y [1] = assay: Antiproliferative activity against human SH-SY5Y cells overexpressing MDMX assessed as cell growth inhibition incubated for 72 hrs by CCK-8 assay; type: functional, cell-based
HCT-116 [2] = assay: Antiproliferative activity against human HCT-116 cells overexpressing MDM2 assessed as cell growth inhibition incubated for 72 hrs by CCK-8 assay; type: functional, cell-based; conditions: HCT-116, 72 h
[3] = target: E3 ubiquitin-protein ligase Mdm2 (Homo sapiens, UniProt Q00987); assay: Binding affinity to MDM2 (1 to 118 residues) (unknown origin) assessed as inhibition constant incubated for 1 hr measured by fluorescence polarization assay
E3 ubiquitin-protein ligase Mdm2, sequence (Q00987 whole entry, the tested form may be a part): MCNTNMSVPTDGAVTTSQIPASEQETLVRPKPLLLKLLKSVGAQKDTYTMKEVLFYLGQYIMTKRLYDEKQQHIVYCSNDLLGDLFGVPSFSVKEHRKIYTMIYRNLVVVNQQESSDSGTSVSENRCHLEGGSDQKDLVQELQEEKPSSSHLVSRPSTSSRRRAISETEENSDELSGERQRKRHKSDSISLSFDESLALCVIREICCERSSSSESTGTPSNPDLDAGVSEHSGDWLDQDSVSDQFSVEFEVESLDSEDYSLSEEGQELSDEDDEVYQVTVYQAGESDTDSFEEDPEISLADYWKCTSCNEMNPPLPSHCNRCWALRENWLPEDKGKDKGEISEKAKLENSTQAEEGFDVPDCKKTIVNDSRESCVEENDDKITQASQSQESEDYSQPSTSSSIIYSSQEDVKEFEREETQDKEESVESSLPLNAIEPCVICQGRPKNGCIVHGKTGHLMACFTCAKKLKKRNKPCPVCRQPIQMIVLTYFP

SH-SY5Y [4] = assay: Antiproliferative activity against human SH-SY5Y cells overexpressing MDMX assessed as cell growth inhibition incubated at 10 uM for 72 hrs by CCK-8 assay relative to control; type: functional
HCT-116 [5] = assay: Antiproliferative activity against human HCT-116 cells overexpressing MDM2 assessed as cell growth inhibition incubated at 10 uM for 72 hrs by CCK-8 assay relative to control; type: functional
[6] = Antiproliferative activity against human HCT116-p53-null cells overexpressing MDMX assessed as cell growth inhibition incubated for 72 hrs by CCK-8 assay; type: functional, cell-based
SJSA-1 = assay: Antiproliferative activity against human SJSA-1 cells overexpressing MDM2 assessed as cell growth inhibition incubated for 72 hrs by CCK-8 assay; type: functional, cell-based; conditions: SJSA-1, 72 h
Protein Mdm4 = target: T1, Protein Mdm4 (Homo sapiens, UniProt O15151); assay: Binding affinity to MDMX (1 to 118 residues) (unknown origin) assessed as inhibition constant incubated for 1 hr measured by fluorescence polarization assay
T1 sequence (O15151 whole entry): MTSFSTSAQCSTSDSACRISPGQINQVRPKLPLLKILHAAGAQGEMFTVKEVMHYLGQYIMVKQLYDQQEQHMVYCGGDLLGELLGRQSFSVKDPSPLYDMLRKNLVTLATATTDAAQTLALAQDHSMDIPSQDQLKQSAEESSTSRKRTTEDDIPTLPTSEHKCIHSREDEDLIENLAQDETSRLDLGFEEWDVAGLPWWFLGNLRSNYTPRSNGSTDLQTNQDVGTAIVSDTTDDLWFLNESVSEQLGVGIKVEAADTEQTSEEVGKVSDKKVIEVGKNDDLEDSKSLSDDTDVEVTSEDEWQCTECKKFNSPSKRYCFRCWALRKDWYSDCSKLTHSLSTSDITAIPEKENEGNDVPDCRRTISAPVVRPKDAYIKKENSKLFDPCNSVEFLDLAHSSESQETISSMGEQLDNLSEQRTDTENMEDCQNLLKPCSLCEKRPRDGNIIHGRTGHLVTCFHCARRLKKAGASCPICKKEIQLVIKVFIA

Molecule `O=C(c1ccccc1)C(Nc1ccccc1)c1ccccc1` (stereo not given) has a pIC50 (SH-SY5Y [1]) of under 4.40, a pIC50 (HCT-116 [2]) of under 4.40 and a pKi [3] of 4.42.

For `O=C(c1ccc(Cl)cc1)C(Nc1ccccc1)c1ccccc1` (stereo not given), the pIC50 (SH-SY5Y [1]) was under 4.40, the pIC50 (HCT-116 [2]) was under 4.40 and the pKi [3] was 4.74.

`Cc1cccc(CC(C(=O)c2ccc(Cl)cc2)C(=O)c2cc(F)ccc2F)c1` (stereo not given) gave an inhibition at 10 µM (SH-SY5Y [4]) of 24.6%, an inhibition at 10 µM (HCT-116 [5]) of 33.7% and a pKi [3] of 4.65.

Work on `O=C(O)CCCC(=O)N(c1ccc(Cl)cc1)C(C(=O)c1ccc(Cl)cc1)c1ccc(F)cc1Cl` (stereo not given) yielded a pIC50 (SH-SY5Y [1]) of 4.94, a pIC50 [6] of 4.53 and a pIC50 (SJSA-1) of 5.01. The pIC50 (HCT-116 [2]) was 4.99 and the pKi [3] was 6.11.

For `O=C(c1ccc(Cl)cc1)C(Cc1cccc(C(F)(F)F)c1)C(=O)c1cc(F)ccc1F` (stereo not given), the inhibition at 10 µM (SH-SY5Y [4]) was 42.9%, the inhibition at 10 µM (HCT-116 [5]) was 48.4% and the pKi [3] was 4.87.

With `O=C(O)c1ccc(C(=O)N(c2ccc(Cl)cc2)C(C(=O)c2ccc(Cl)cc2)c2ccc(F)cc2Cl)cc1` (stereo not given) the pIC50 (SH-SY5Y [1]) was 5.99, the pIC50 [6] was 4.78 and the pKi (Protein Mdm4) was 5.37. It also gave a pIC50 (SJSA-1) of 5.71, a pIC50 (HCT-116 [2]) of 5.65 and a pKi [3] of 6.49.

With `O=C(c1ccc(Cl)cc1)C(Cc1cccc(Cl)c1)C(=O)c1cc(F)ccc1F` (stereo not given) the inhibition at 10 µM (SH-SY5Y [4]) was 48.1%, the inhibition at 10 µM (HCT-116 [5]) was 51.8% and the pKi [3] was 5.22.

`O=C(c1ccc(Cl)cc1)C(Cc1ccc(Cl)cc1)C(=O)c1cc(F)ccc1F` (stereo not given) showed an inhibition at 10 µM (SH-SY5Y [4]) of 10.9%, an inhibition at 10 µM (HCT-116 [5]) of 5.64% and a pKi [3] of 4.63.

With `CCN1CCN(C(=O)CCC(=O)N(c2ccc(Cl)cc2)C(C(=O)c2ccc(Cl)cc2)c2ccc(F)cc2Cl)CC1` (stereo not given) the pIC50 (SH-SY5Y [1]) was 5.24, the pIC50 [6] was 4.68 and the pKi (Protein Mdm4) was 5.03. The pIC50 (SJSA-1) was 5.23, the pIC50 (HCT-116 [2]) was 5.20 and the pKi [3] was 6.16.

With `COc1ccc(C(=O)C(Nc2ccc(C)cc2)c2ccc(OC)cc2)cc1` (stereo not given) the pIC50 (SH-SY5Y [1]) was 4.48, the pIC50 (HCT-116 [2]) was 4.48 and the pKi [3] was 4.78.

For `O=C(c1ccc(Br)cc1)C(Nc1ccc(Cl)cc1)c1ccc(Cl)cc1` (stereo not given), the pIC50 (SH-SY5Y [1]) was 4.69, the pIC50 (HCT-116 [2]) was 4.66 and the pKi [3] was 4.88.

With `O=C(c1ccc(Cl)cc1)C(Cc1ccccc1Cl)C(=O)c1cc(F)ccc1F` (stereo not given) the inhibition at 10 µM (SH-SY5Y [4]) was 22.7%, the inhibition at 10 µM (HCT-116 [5]) was 25.4% and the pKi [3] was 4.82.

`O=C(O)CCCCC(=O)N(c1ccc(Cl)cc1)C(C(=O)c1ccc(Cl)cc1)c1ccc(F)cc1Cl` (stereo not given) showed a pIC50 (SH-SY5Y [1]) of 5.02, a pIC50 [6] of 4.58 and a pIC50 (SJSA-1) of 4.94. The pIC50 (HCT-116 [2]) was 4.98 and the pKi [3] was 6.15.

For `CCOc1cc(/C=C2\C(=O)N(c3ccccc3)N=C2C)cc(Cl)c1OCC(=O)OC`, the pIC50 (SH-SY5Y [1]) was 4.89 and the pKi (Protein Mdm4) was 6.11.

In the case of `O=C(c1ccc(Cl)cc1)C(Nc1ccc(F)cc1)c1ccc(F)cc1Cl` (stereo not given), the pIC50 (SH-SY5Y [1]) was 4.76, the pIC50 (HCT-116 [2]) was 4.81 and the pKi [3] was 5.13.

For `O=C(c1ccc(Cl)cc1)C(Nc1cc(F)cc(F)c1)c1ccc(Cl)cc1F` (stereo not given), the pIC50 (SH-SY5Y [1]) was 4.87, the pIC50 (HCT-116 [2]) was 4.88 and the pKi [3] was 5.61.

With `Cc1cc(Cl)cc(NC(C(=O)c2ccc(Cl)cc2)c2ccc(F)c(Cl)c2)c1` (stereo not given) the pIC50 (SH-SY5Y [1]) was 4.76, the pIC50 (HCT-116 [2]) was 4.78 and the pKi [3] was 4.76.

`COC(=O)CCC(=O)N(c1ccc(Cl)cc1)C(C(=O)c1ccc(Cl)cc1)c1ccc(F)cc1Cl` (stereo not given) gave a pIC50 (SH-SY5Y [1]) of 4.68, a pIC50 [6] of 4.49 and a pIC50 (SJSA-1) of 4.72. It also gave a pIC50 (HCT-116 [2]) of 4.71 and a pKi [3] of 5.86.

Work on `COC(=O)c1ccc(NC(=O)CCC(=O)N(c2ccc(Cl)cc2)C(C(=O)c2ccc(Cl)cc2)c2ccc(F)cc2Cl)cc1` (stereo not given) yielded a pIC50 (SH-SY5Y [1]) of 4.88, a pIC50 [6] of 4.64 and a pKi (Protein Mdm4) of 4.54. It also gave a pIC50 (SJSA-1) of 4.86, a pIC50 (HCT-116 [2]) of 4.85 and a pKi [3] of 6.02.

Work on `COc1ccc(S(=O)(=O)N(c2ccc(Cl)cc2)C(C(=O)c2ccc(Cl)cc2)c2ccc(F)cc2Cl)cc1` (stereo not given) yielded a pIC50 (SH-SY5Y [1]) of 5.02, a pIC50 [6] of 4.52 and a pKi (Protein Mdm4) of 4.81. The pIC50 (SJSA-1) was 4.98, the pIC50 (HCT-116 [2]) was 4.92 and the pKi [3] was 6.19.

Work on `O=C(c1ccc(Cl)cc1)C(Cc1cccc(F)c1)C(=O)c1cc(F)ccc1F` (stereo not given) yielded an inhibition at 10 µM (SH-SY5Y [4]) of 18.9%, an inhibition at 10 µM (HCT-116 [5]) of 14.3% and a pKi [3] of 4.89.

In the case of `O=C(c1ccc(Cl)cc1)C(Cc1cc(Cl)cc(Cl)c1)C(=O)c1cc(F)ccc1F` (stereo not given), the inhibition at 10 µM (SH-SY5Y [4]) was 9.49%, the inhibition at 10 µM (HCT-116 [5]) was 33.5% and the pKi [3] was 5.11.

`CC(=O)N1CCN(C(=O)CCC(=O)N(c2ccc(Cl)cc2)C(C(=O)c2ccc(Cl)cc2)c2ccc(F)cc2Cl)CC1` (stereo not given) gave a pIC50 (SH-SY5Y [1]) of 5.39, a pIC50 [6] of 4.57 and a pKi (Protein Mdm4) of 5.13. For the same molecule, the pIC50 (SJSA-1) was 5.42, the pIC50 (HCT-116 [2]) was 5.38 and the pKi [3] was 6.46.

With `COC(=O)c1ccc(C(=O)N(c2ccc(Cl)cc2)C(C(=O)c2ccc(Cl)cc2)c2ccc(F)cc2Cl)cc1` (stereo not given) the pIC50 (SH-SY5Y [1]) was 5.13, the pIC50 [6] was 4.68 and the pKi (Protein Mdm4) was 4.89. It also gave a pIC50 (SJSA-1) of 4.99, a pIC50 (HCT-116 [2]) of 5.05 and a pKi [3] of 5.97.
